Row | SMILES | melting point [°C]
1 | ICCc1ccc(CCI)cc1 | 111
2 | O=C1Cc2cc(C(=O)CBr)ccc2N1 | 225
3 | Cc1cccc2ncccc12 | 19
4 | C=C(C)C=O | -81
5 | O=C1c2ccccc2C(=O)C1c1ccc(Br)cc1 | 138
6 | COc1ccc(-n2c(=S)[nH]c(=O)c3cccnc32)cc1 | 261 to 263
7 | O=CNC(c1ccccc1)C(O)c1ccccc1 (stereo not given) | 205
8 | Cc1onc(-c2ccccc2)c1N=C=O | 39 to 40
9 | COc1ccc(/C=C2\CN(S(=O)(=O)c3ccc(C)cc3)c3ccccc3N2S(=O)(=O)c2ccc(C)cc2)cc1 | 152
10 | CSc1nc(N)nc(N2CCCCC2)n1 | 156 to 158
11 | CCC#CCC | -103
12 | CC(CCC(=O)O)C1CCC2C3C(=O)C(Br)C4CC(C(=O)O)CCC4(C)C3CC(C(=O)O)C12C (stereo not given) | 229 to 230
13 | CCC1C(=CC(=O)CI)N(C)C(C)(C)N1O (stereo not given) | 126 to 127
14 | N#Cc1c(-c2ccccc2)nn(-c2ccccc2)c1N | 161
15 | N#CC(=CN)S(=O)(=O)c1ccc(Cl)cc1 | 213 to 214
16 | CC(C)OC(=O)Cc1csc(-c2ccc(Cl)cc2)n1 | 82 to 84
17 | C1CCCCCCCCCCCC1 | 23

Row | SMILES | melting point [°C]
18 | Nc1ccncc1Br | 67 to 71
19 | OCc1ccc(-n2cccc2)cc1 | 102 to 105
20 | CC(C)(O)CCc1ccccc1O | 114 to 116
21 | Brc1ccc(-c2cnco2)cc1 | 78 to 79
22 | CC(C)c1cccc(C(C)C)c1N | -45
23 | Cc1nc(-c2ccncc2)sc1C(=O)O | 305
24 | COC(=O)c1cc(Br)cc(Br)c1 | 63
25 | CCCCc1c(C)nc(NC(=O)NS(=O)(=O)c2cccs2)nc1O | 200 to 201
26 | NCc1cccc(-c2ccsc2)c1 | 80
27 | O=S(=O)(Cl)c1cc(C(F)(F)F)ccc1N1CCOCC1 | 81.5 to 84
28 | O=Cc1ccc(-c2nccs2)cc1 | 90 to 91
29 | O=C(Oc1c(F)c(F)c(F)c(F)c1F)C1CCN(c2ncnc3ccsc23)CC1 | 99 to 104
30 | O=C(OCC1(COC(=O)c2cccnc2)CCCC(COC(=O)c2cccnc2)(COC(=O)c2cccnc2)C1O)c1cccnc1 | 178
31 | COc1nsnc1NS(=O)(=O)c1ccc(N)cc1 | 150
32 | O=C=Nc1cccc(-c2ncccn2)c1 | 45 to 47
33 | CCN(CC)CCSC(=O)N(c1ccccc1)c1ccccc1 | 48

Now from value to molecule:

Row | melting point [°C] | SMILES
34 | 174 to 175 | O=C(c1cc2ccccc2o1)c1cc2ccccc2o1
35 | 203 to 208 | Cc1ccc(S(=O)(=O)N[C@H](c2ccccc2)[C@H](NS(=O)(=O)c2ccc(C)cc2)c2ccccc2)cc1
36 | 93 | Cc1nn2c(C)nnc2s1
37 | 122 | CC(=O)c1cc2ccccc2oc1=O
38 | 80 to 82 | CC(C)C(NC(=O)C(C)(C)Br)C(C)C
39 | 220 | CC(=O)OC1CC2C(C)C(=O)C3(C(O)CC4C5(C)CCCC4(C(O)OC5)C13)C2O (stereo not given)
40 | 220 | Cc1ccc(/N=N/c2c(N)nn3c(C(F)(F)F)cc(C)nc23)c(C)c1
41 | 179 | CSc1cc(-c2ccc3ccccc3c2)c2c(=O)n(-c3ccccc3)n(C)c2c1
42 | -13 | Fc1ccc(F)cc1
43 | 69 | OCC1CCCCN1 (stereo not given)
44 | 137 to 141 | O=C(O)[C@@H]1Cc2ccccc2CN1C(=O)OCc1ccccc1
45 | 54 to 57 | Cc1nc2cc(Cl)ccc2o1
46 | 132 to 133 | COc1ccc(C=C2N=C(c3ccccc3)OC2=O)cc1OC
47 | 167 to 168 | COc1ccc(C=NN=Cc2ccc(OC)cc2)cc1
48 | 112 to 113 | COC(=O)c1sccc1Oc1ccc(C(F)(F)F)cc1[N+](=O)[O-]
49 | -52.3 | C=Cc1cccc(C=C)c1
50 | 80 to 84 | NC(=S)c1ccccc1F

— a melting point compilation (Tetko et al.)
